Results as given in US8492414B2, “Antibacterial agents” (Biota Scientific Management Pty Ltd, priority 2007, dated 2013).
In brackets after ≈: the same amount, converted by molar mass.

Test system: Staphylococcus aureus ATCC29213
Experiment: Minimum Inhibitory Concentration (MIC) testing, broth microdilution or agar dilution
Assay type: cell-based
Settings: MIC scored A/B/C, read-out: Staphylococcus aureus MICs, Activity
Procedure: Minimum Inhibitory Concentration (MIC) Testing Compounds of this invention were tested for antimicrobial activity by susceptibility testing in liquid or on solid media. […] Activities were scored as ‘A’ if the MIC was ≦[…] micrograms/ml, ‘B’ if the MIC was 0.25 to 4 micrograms/ml and ‘C’ if the MIC was greater than 4 micrograms/ml.

SMILES	MIC [µg/mL]
NC(=O)c1c(F)ccc(OCc2nc(-c3ccc(Cl)cc3)ns2)c1F [Example 1, 3-[3-(4-Chlorophenyl)-[1,2,4]thiadiazol-5-ylmethoxy]-2,6-difluorobenzamide]	≤ 1.12
NC(=O)c1c(F)ccc(OCc2nc(-c3ccc(OC(F)(F)F)cc3)ns2)c1F [Example 3, 2,6-Difluoro-3-[3-(4-trifluoromethoxyphenyl)-[1,2,4]thiadiazol-5-ylmethoxy]-benzamide]	≤ 1.12
COc1ccc(-c2nsc(COc3ccc(F)c(C(N)=O)c3F)n2)cc1 [Example 2, 2,6-Difluoro-3-[3-(4-methoxyphenyl)-[1,2,4]thiadiazol-5-ylmethoxy]-benzamide]	≤ 1.12
COc1cc(Cl)ccc1-c1nsc(COc2ccc(F)c(C(N)=O)c2F)n1 [Example 5, 3-((3-(4-chloro-2-methoxyphenyl)-1,2,4-thiadiazol-5-yl)methoxy)-2,6-difluorobenzamide]	0.25 to 4 (≈ 0.607 to 9.71 µM)
NC(=O)c1c(F)ccc(OCc2nc(-c3ccc(O)cc3)ns2)c1F [Example 4, 2,6-Difluoro-3-[3-(4-hydroxyphenyl)-[1,2,4]thiadiazol-5-ylmethoxy]-benzamide]	0.25 to 4 (≈ 0.688 to 11 µM)
NC(=O)c1c(F)ccc(OCc2nc(-c3ccc(Cl)cc3OCc3ccccc3)ns2)c1F [Example 6, 3-((3-(2-(Benzyloxy)-4-chlorophenyl)-1,2,4-thiadiazol-5-yl)methoxy)-2,6-difluorobenzamide]	0.25 to 4 (≈ 0.512 to 8.2 µM)
NC(=O)c1c(F)ccc(OCc2nc(-c3ccc(Cl)cc3O)ns2)c1F [Example 7, 3-((3-(4-chloro-2-hydroxyphenyl)-1,2,4-thiadiazol-5-yl)methoxy)-2,6-difluorobenzamide]	≤ 1.12
